Values quoted from earlier work in patent publication US8366600B2, “Polyamine enhanced formulations for triptan compound iontophoresis” (NuPathe Inc., priority 2008, dated 2013).

Columns and labels:
[1] = for Cmax: expected maximum concentration in the patient's plasma; for AUC: total plasma concentration
[2] = transdermal, iontophoresis vs passive

**Q.** Which results are given for CN(C)CCc1c[nH]c2ccc(Cn3cncn3)cc12 [Rizatriptan]?
**A.** Cmax [1]: 22 ng/mL; AUC [1]: 78 ng·h/mL

**Q.** What does the source list for CNS(=O)(=O)CCc1ccc2[nH]cc(C3CCN(C)CC3)c2c1 [Naratriptan]?
**A.** Cmax [1]: 8 ng/mL; AUC [1]: 75 ng·h/mL

**Q.** For CN1CCC[C@@H]1Cc1c[nH]c2ccc(CCS(=O)(=O)c3ccccc3)cc12 [Eletriptan], which Cmax [1] is on record?
**A.** 200 ng/mL

**Q.** What about the AUC [1] of the same compound?
**A.** 1,300 ng · hr/mL

**Q.** What does the source list for CN[C@@H]1CCc2[nH]c3ccc(C(N)=O)cc3c2C1 [Frovatriptan]?
**A.** Cmax [1]: 5 ng/mL; AUC [1]: 45 ng·h/mL

**Q.** For CN(C)CCc1c[nH]c2ccc(CS(=O)(=O)N3CCCC3)cc12 [Almotriptan], which Cmax [1] is on record?
**A.** 52 ng/mL

**Q.** What about the AUC [1] of the same compound?
**A.** 310 ng·h/mL

**Q.** For CNS(=O)(=O)Cc1ccc2[nH]cc(CCN(C)C)c2c1 [Sumatriptan], which “rate of iontophoretic transport relative to passive transport” value [2] is on record?
**A.** 385 fold

**Q.** For CN(C)CCc1c[nH]c2ccc(C[C@H]3COC(=O)N3)cc12 [Zolmitriptan], which Cmax [1] is on record?
**A.** 4 ng/mL

**Q.** And the AUC [1]?
**A.** 20 ng·h/mL
